In data set [1] the test system is focal stroke in forelimb motor cortex. In words: Grid-walking task (footfaults) after photothrombotic focal stroke. Type of data set: in vivo, mouse. Particulars: for number of forelimb footfaults / function of impaired forelimb, grid-walking: i.p. twice daily from 5 d after stroke for 6 weeks, CX1837 0.33 or 1 mg/kg, CX1739 3 or 30 mg/kg, CFM2 50 μmol/kg, vs stroke plus vehicle. Here is the method: (§1) Focal stroke was induced by photothrombosis in adult male C57BL/6 mice weighing 20-25 g as previously described (Clarkson et al. (2010) Nature 468: 305-309).
(§2) CX1837 (0.33 and 1 mg/kg) and CX1739 (3 and 30 mg/kg) were dissolved in 30% hydroxypropyl_β-cyclodextran (HPCD) (made 1:1 in 0.9% saline and distilled H2O) and administered intraperitoneally twice daily starting 5 d after stroke for a period of 6 weeks. The AMPAR antagonist CFM2 ([…]) (De Sarro et al. (1999) Eur. J. Pharmacol., 368: 149-159) was administered intraperitoneally twice daily for 6 weeks.
A hyaluronan/heparin sulfate proteoglycan biopolymer hydrogel (Extracel-HP, a.k.a., HYSTEM®-HP; BioTime,) was used to locally deliver TrkB-Fc (5 μg/ml) and human IgG-Fc (antibody and vehicle control) to the periinfarct cortex (Li et al. (2010) Nat. Neurosci. 13: 1496-1504). This hydrogel was chosen because it is composed of naturally occurring brain extracellular matrix constituents; remains liquid for a period after mixing so that it can be injected into the brain through a small, minimally invasive needle; and will gel within the stroke cavity, conforming to the boundaries of this cavity. We have shown that this hydrogel releases small and large proteins for up to 4 weeks from the infarct cavity after stroke. Five days after stroke, 10 μl of Extracel-HP (HYSTEM®-HP), impregnated with TrkB-Fc (5 μg/ml) or human IgG-Fc (vehicle), was injected directly into the stroke infarct cavity using a 30 gauge needle attached to a Hamilton syringe. Extracel-HP was prepared according to the manufacturer's instructions. […]
(§3) Animals were tested once on both the grid-walking and cylinder tasks, 1 week before surgery to establish baseline performance levels. For the reaching task, mice were trained for a period of 14 d and subsequently tested on day 15 to establish a baseline reading. […] Behaviors were scored by observers who were blind to the treatment group of the animals in the study as previously described (Clarkson et al. (2010) Nature 468: 305-309). […]

Data set [2] has the same test system. As to the kind of experiment: Single-pellet skilled-reaching task after stroke. It counts as in vivo, mouse. Particulars: CFM2 50 μmol/kg i.p. bid from 5 d after stroke. Here is the method:
For loss-of-function studies assessing CFM2, the single-pellet skilled-reaching task was used (Conner et al. (2005) Neuron 46: 173-179). Before stroke, animals were trained for […] to successfully reach and retrieve 20 mg sugar pellets (Bio-Serv). A three lane Plexiglas reaching apparatus (30 cm deep, 10 cm wide, and 30 cm high for each lane) was constructed to allow simultaneous recording of three animals. Each lane consists of two 5 mm slots situated against the front-right and front-left walls of the chamber to force the mouse the reach for the pellets using either their right or left forepaws. A 5-mm-thick plastic shelf was mounted 15 mm from the floor at the front of the box.
During the training period, mice were fasted to 90% of their body weight and maintained at this level for the full 3 week training period. […]
All mice were fasted the night before testing. Pellets were presented one at a time and reaches were recorded with a Canon VIXIA HV30 video recorder. […] If an animal reached through the slot and obtained/grasped a food pellet and brought the pellet back through the slot, the reach was scored as a success. If an animal knocked the pellet away or dropped the pellet after grasping it, the reach was scored as a miss. The performance of each mouse was scored as follows: percentage success[…](number of successful retrievals/15)*100.

The conditions of data set [3]: CFM2 50 μmol/kg i.p. bid; cited from earlier work.
Data set [4] has as its system focal stroke in forelimb motor cortex. In words: Spontaneous-forelimb (cylinder) task after photothrombotic focal stroke. Type of data set: in vivo, mouse. Particulars: i.p. twice daily from 5 d after stroke for 6 weeks; CX1837 0.33 or 1 mg/kg, CX1739 3 or 30 mg/kg; vs stroke plus vehicle. Here is the method:
as §1, §2
A hyaluronan/heparin sulfate proteoglycan biopolymer hydrogel (Extracel-HP, a.k.a., HYSTEM®-HP; BioTime,) was used to locally deliver TrkB-Fc (5 μg/ml) and human IgG-Fc (antibody and vehicle control) to the periinfarct cortex (Li et al. (2010) Nat. Neurosci. 13: 1496-1504). […]
as §3

The test system of another data set is BDNF. In words: BDNF ELISA of cortical tissue 7 d after stroke. Type of data set: in vivo, mouse. Particulars: treatment from day 5, CX1837 1 mg/kg, CX1739 3 mg/kg, vs stroke plus vehicle. Here is the method: (§4) Tissue was collected from around the stroke site from stroke plus vehicle, stroke plus CX1837 (1 mg/kg), and stroke plus CX1739 (3 mg/kg), and control groups 7 d after stroke. Cortical tissue was dissected in a 1 mm radius around the stroke infarct core, including the core itself, and flash frozen on dry ice.
Equal volumes of tissue were homogenized in […] of homogenization buffer [Complete Protease Inhibitor Tablet (Invitrogen), 1 mM phenylmethylsulfonylfluoride, 50 mM Tris-HCl, 5 mM EDTA, 10 mM EGTA, 1% Triton X-100] for ˜1 min. Tissue and homogenization buffer were incubated on ice for 30 min, followed by a 5 min spin at 14,000 rpm. The supernatant was collected and total protein concentrations were determined using the DC Protein Assay (Bio-Rad). BDNF was measured using the BDNF ELISA Emax Immunoassay System (Promega) as per the manufacturer's instructions. BDNF levels were determined relative to a standard curve constructed from measures of kit-supplied BDNF protein standards (0-500 pg of BDNF protein) that were assayed simultaneously with the experimental samples. BDNF levels are expressed as picograms of BDNF per 100 μg of sample protein.
For orientation: In an ELISA, binding on a coated surface is turned into a signal by an enzyme label.

The next data set has as its system TrkB. In words: TrkB/p-Trk immunoblotting of cortical tissue 7 d after stroke. As to conditions: CX1837 1 mg/kg, CX1739 3 mg/kg, vs stroke plus vehicle. It counts as in vivo, mouse. Here is the method: as §4
For immunoblotting experiments, protein (10 μg) was loaded onto a 12% SDS-polyacrylamide gel, subjected to electrophoresis, and transferred to a pure nitrocellulose membrane (GE Healthcare). The membrane was blocked in 10% nonfat milk and probed with polyclonal antibodies specific for anti-TrkB (1:1000; Santa Cruz Biotechnology) and anti-p-Trk (1:5000; Santa Cruz Biotechnology). The blots were incubated with peroxidase-labeled anti-rabbit IgG (1:2000; Vector Laboratories) and immunoreactive proteins were visualized using enhanced chemiluminescence (GE Healthcare). β-Actin was used as a loading control (1:5000; Abcam). Optical density (OD) was determined using the NIH ImageJ software. Pixel intensities were converted to OD using the calibration curve of the software, and background-subtracted values were expressed as OD/[…] total protein.
On the technique in general: In western blotting, separated proteins are transferred to a membrane and probed.

The subject of data set [5] is hilar EPSPs (dentate gyrus of the hippocampus).
Protocol: Male Long-Evans rats (250-350 g) were anesthetized by pentobarbital (60 mg/kg, i.p.) and maintained under anesthesia by pentobarbital infusion (2-4 mg·kg-^1·h^−1). Under anesthesia, animals were placed in a stereotaxic frame and small holes were drilled into the skull of the left hemisphere to allow the positioning of a stimulating electrode (−7.8 to −8.1 AP; 4.2 to 4.4 ML) and a recording electrode (−3.0 to −3.3 AP; 1.6 to 2.2 ML). A monopolar stainless-steel stimulating electrode (175 μm, insulated with Formvar) was lowered into the perforant path together with a platinum/iridium recording electrode (75 μm) into the hilus of the dentate gyms of the hippocampus. The current used to elicit an evoked potential was adjusted to produce a response size 50-60% of the maximal spike-free amplitude. Evoked hilar EPSPs were recorded in response to single-pulse stimulation delivered at a frequency of one pulse per 20 s.
Data acquisition and analysis was performed using commercially available software (NAC and NACSHOW).

Entries after “also recorded” stand apart in the source; their conditions may differ.

This is an account of results in US9700596B2, “Locally released growth factors to mediate motor recovery after stroke” (The Regents of the University of California, priority 2011, dated 2017).

Regarding `COc1cc2c(cc1OC)C(c1ccc(N)cc1)=NNC(=O)C2` [CFM2], the “number of forelimb footfaults / function of impaired forelimb, grid-walking” value in data set [1] is on record as “significant impairment in the normal gain of motor function; also recorded: significant increase in the number of footfaults”. Further, in data set [2], the “successful pellet retrieval with impaired right forelimb” value is reported as “significant impairment in the ability to retrieve pellets successfully out to 2 weeks after stroke; also recorded: decrease in the number of pellets successfully retrieved”. The “general behavioral side effects (reduced motor activity, impaired grooming, weight loss)” value in data set [3] was “did not produce general behavioral side effects”.
As for `CN(C(=O)c1ccc2nonc2c1)C1CCOCC1` [CX1739], in data set [1], the “number of forelimb footfaults / function of impaired forelimb, grid-walking” value is “small decrease in the number of footfaults; also recorded: small yet non-significant decrease in the number of footfaults”. In data set [4], the “forelimb asymmetry (left/right ratio), cylinder task” value was “small increase in the use of the right-impaired forelimb; also recorded: did not result in a decrease in the left/ratio”. In addition, the “BDNF levels in periinfarct cortex” value in the data set with BDNF is recorded as “did not change the level of BDNF expression”. For the same molecule, in the data set on TrkB, the “TrkB phosphorylation in periinfarct cortex” value is recorded as “did not change the level of TrkB phosphorylation”. In addition, in data set [5] (i.p., anesthetized rats), the “excitability ceiling of the EPSP amplitude effect (dose)” value is recorded as 10 mg/kg. Also, the “crossing of the blood-brain barrier when given systemically” value in data set [5] (rat, in vivo, ip) is listed as “cross the blood-brain barrier”.

B1: brain derived neurotrophic factor (protein)
chain: HSDPARRGELSVCDSISEWVTAADKKTAVDMSGGTVTVLEKVPVSKGQLKQYFYETKCNPMGYTKEGCRGIDKRHWNSQCRTTQSYVRALTMDSKKRIGWRFIRIDTSCVCTLTIKRGR
notes: growth factor, delivered through HYSTEM-C from 7 days after stroke
Turning to B1, the “forelimb footfaults / functional recovery with hydrogel-delivered BDNF” value in data set [1] (injected 7 days after stroke, 4 weeks after injection, 5 weeks after stroke) was “significant improvements in functional recovery”.
